Experimental data: PubChem BioAssay (NCI)
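These data come from cells grown in 96-well plates and exposed to compound for 48 hours at five concentrations. The concentration for 50% growth inhibition is given as GI50. TGI is the concentration that stops growth completely.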

Tests used:
Assay in all cases: NCI tumour cell line growth inhibition, 48 h
LOX IMVI melanoma = tested on: LOX IMVI melanoma
CAKI-1 renal = tested on: CAKI-1 renal
SNB-75 CNS = tested on: SNB-75 CNS
MCF7 breast = tested on: MCF7 breast
SF-539 CNS = tested on: SF-539 CNS
HOP-92 NSCLC = tested on: HOP-92 NSCLC
M14 melanoma = tested on: M14 melanoma
U251 CNS = tested on: U251 CNS
NCI-H522 lung = tested on: NCI-H522 lung
SR leukemia = tested on: SR leukemia
HCC-2998 colon = tested on: HCC-2998 colon
A498 renal = tested on: A498 renal
MDA-MB-435 = tested on: MDA-MB-435
UO-31 renal = tested on: UO-31 renal
EKVX NSCLC = tested on: EKVX NSCLC
SF-268 CNS = tested on: SF-268 CNS
RPMI-8226 leukemia = tested on: RPMI-8226 leukemia
UACC-62 melanoma = tested on: UACC-62 melanoma
KM12 colon = tested on: KM12 colon
K-562 leukemia = tested on: K-562 leukemia
SK-MEL-2 melanoma = tested on: SK-MEL-2 melanoma
MOLT-4 leukemia = tested on: MOLT-4 leukemia
TK-10 renal = tested on: TK-10 renal
NCI-H226 lung = tested on: NCI-H226 lung
SW-620 colon = tested on: SW-620 colon
RXF 393 renal = tested on: RXF 393 renal
SK-OV-3 ovarian = tested on: SK-OV-3 ovarian
SNB-19 CNS = tested on: SNB-19 CNS
SF-295 CNS = tested on: SF-295 CNS
HCT-15 colon = tested on: HCT-15 colon
NCI-H23 lung = tested on: NCI-H23 lung
T-47D breast = tested on: T-47D breast
SK-MEL-28 melanoma = tested on: SK-MEL-28 melanoma
DU-145 prostate = tested on: DU-145 prostate
NCI-H460 lung = tested on: NCI-H460 lung
OVCAR-3 ovarian = tested on: OVCAR-3 ovarian
UACC-257 melanoma = tested on: UACC-257 melanoma
OVCAR-8 ovarian = tested on: OVCAR-8 ovarian
SN12C renal = tested on: SN12C renal
SK-MEL-5 melanoma = tested on: SK-MEL-5 melanoma
PC-3 prostate = tested on: PC-3 prostate
HL-60(TB) leukemia = tested on: HL-60(TB) leukemia
BT-549 breast = tested on: BT-549 breast
MDA-MB-468 breast = tested on: MDA-MB-468 breast
COLO 205 colon = tested on: COLO 205 colon
786-0 renal = tested on: 786-0 renal
OVCAR-5 ovarian = tested on: OVCAR-5 ovarian
CCRF-CEM leukemia = tested on: CCRF-CEM leukemia
A549 NSCLC = tested on: A549 NSCLC
HCT-116 colon = tested on: HCT-116 colon
HS 578T breast = tested on: HS 578T breast
OVCAR-4 ovarian = tested on: OVCAR-4 ovarian
MALME-3M melanoma = tested on: MALME-3M melanoma
IGROV1 ovarian = tested on: IGROV1 ovarian
MDA-MB-231 breast = tested on: MDA-MB-231 breast
NCI/ADR-RES ovarian = tested on: NCI/ADR-RES ovarian
HT29 colon = tested on: HT29 colon
HOP-62 NSCLC = tested on: HOP-62 NSCLC
ACHN renal = tested on: ACHN renal

Structure (SMILES): O=C(CSc1nnc(-c2ccc(-c3nc4ccc(Cl)cc4[nH]3)cc2)o1)Nc1ccc(Br)cc1
- GI50 (LOX IMVI melanoma): 1.42 µM
- TGI (LOX IMVI melanoma): 2.8 µM
- GI50 (CAKI-1 renal): 2.34 µM
- TGI (CAKI-1 renal): 7.01 µM
- GI50 (SNB-75 CNS): 2.39 µM
- TGI (SNB-75 CNS): 8.71 µM
- GI50 (MCF7 breast): 3.02 µM
- TGI (MCF7 breast): 12.9 µM
- GI50 (SF-539 CNS): 1.65 µM
- TGI (SF-539 CNS): 3.08 µM
- GI50 (HOP-92 NSCLC): 2.43 µM
- TGI (HOP-92 NSCLC): 9.03 µM
- GI50 (M14 melanoma): 3.06 µM
- TGI (M14 melanoma): 11.1 µM
- GI50 (U251 CNS): 1.88 µM
- TGI (U251 CNS): 3.82 µM
- GI50 (NCI-H522 lung): 1.84 µM
- TGI (NCI-H522 lung): 5.01 µM
- GI50 (SR leukemia): 1.67 µM
- TGI (SR leukemia): > 100 µM
- GI50 (HCC-2998 colon): 15.3 µM
- TGI (HCC-2998 colon): 46.5 µM
- GI50 (A498 renal): 17.3 µM
- TGI (A498 renal): 34.3 µM
- GI50 (MDA-MB-435): 3.84 µM
- TGI (MDA-MB-435): 14.3 µM
- GI50 (UO-31 renal): 4.03 µM
- TGI (UO-31 renal): 16.5 µM
- GI50 (EKVX NSCLC): 3.33 µM
- TGI (EKVX NSCLC): 14.6 µM
- GI50 (SF-268 CNS): 3.45 µM
- TGI (SF-268 CNS): 16.8 µM
- GI50 (RPMI-8226 leukemia): 5.05 µM
- TGI (RPMI-8226 leukemia): 26.3 µM
- GI50 (UACC-62 melanoma): 1.84 µM
- TGI (UACC-62 melanoma): 4.61 µM
- GI50 (KM12 colon): 6 µM
- TGI (KM12 colon): 31.8 µM
- GI50 (K-562 leukemia): 2.49 µM
- TGI (K-562 leukemia): 11.8 µM
- GI50 (SK-MEL-2 melanoma): 2.98 µM
- TGI (SK-MEL-2 melanoma): 11.1 µM
- GI50 (MOLT-4 leukemia): 2.99 µM
- TGI (MOLT-4 leukemia): 14.2 µM
- GI50 (TK-10 renal): 16.5 µM
- TGI (TK-10 renal): 33.4 µM
- GI50 (NCI-H226 lung): 1.62 µM
- TGI (NCI-H226 lung): 4.58 µM
- GI50 (SW-620 colon): 4.3 µM
- TGI (SW-620 colon): 28.5 µM
- GI50 (RXF 393 renal): 1.98 µM
- TGI (RXF 393 renal): 5.15 µM
- GI50 (SK-OV-3 ovarian): 8.75 µM
- TGI (SK-OV-3 ovarian): 27.5 µM
- GI50 (SNB-19 CNS): 3.76 µM
- TGI (SNB-19 CNS): 14.3 µM
- GI50 (SF-295 CNS): 1.93 µM
- TGI (SF-295 CNS): 4.99 µM
- GI50 (HCT-15 colon): 2.94 µM
- TGI (HCT-15 colon): 13.6 µM
- GI50 (NCI-H23 lung): 2 µM
- TGI (NCI-H23 lung): 4.49 µM
- GI50 (T-47D breast): 3.78 µM
- TGI (T-47D breast): 20.2 µM
- GI50 (SK-MEL-28 melanoma): 1.77 µM
- TGI (SK-MEL-28 melanoma): 3.81 µM
- GI50 (DU-145 prostate): 4.56 µM
- TGI (DU-145 prostate): 19.3 µM
- GI50 (NCI-H460 lung): 2.34 µM
- TGI (NCI-H460 lung): 6.32 µM
- GI50 (OVCAR-3 ovarian): 3.72 µM
- TGI (OVCAR-3 ovarian): 11.7 µM
- GI50 (UACC-257 melanoma): 2.97 µM
- TGI (UACC-257 melanoma): 12.8 µM
- GI50 (OVCAR-8 ovarian): 2.17 µM
- TGI (OVCAR-8 ovarian): 5.63 µM
- GI50 (SN12C renal): 1.74 µM
- TGI (SN12C renal): 4.09 µM
- GI50 (SK-MEL-5 melanoma): 2.98 µM
- TGI (SK-MEL-5 melanoma): 11.1 µM
- GI50 (PC-3 prostate): 2.1 µM
- TGI (PC-3 prostate): 5.78 µM
- GI50 (HL-60(TB) leukemia): 2.87 µM
- TGI (HL-60(TB) leukemia): 11.5 µM
- GI50 (BT-549 breast): 2.95 µM
- TGI (BT-549 breast): 8.55 µM
- GI50 (MDA-MB-468 breast): 2.66 µM
- TGI (MDA-MB-468 breast): 9.97 µM
- GI50 (COLO 205 colon): 24.5 µM
- TGI (COLO 205 colon): > 100 µM
- GI50 (786-0 renal): 2.23 µM
- TGI (786-0 renal): 5.5 µM
- GI50 (OVCAR-5 ovarian): 3.71 µM
- TGI (OVCAR-5 ovarian): 17.5 µM
- GI50 (CCRF-CEM leukemia): 2.31 µM
- TGI (CCRF-CEM leukemia): 10.4 µM
- GI50 (A549 NSCLC): 1.79 µM
- TGI (A549 NSCLC): 3.95 µM
- GI50 (HCT-116 colon): 3.22 µM
- TGI (HCT-116 colon): 14.4 µM
- GI50 (HS 578T breast): 2.62 µM
- TGI (HS 578T breast): 9.96 µM
- GI50 (OVCAR-4 ovarian): 4.81 µM
- TGI (OVCAR-4 ovarian): 19.3 µM
- GI50 (MALME-3M melanoma): 1.94 µM
- TGI (MALME-3M melanoma): 4.84 µM
- GI50 (IGROV1 ovarian): 8.27 µM
- TGI (IGROV1 ovarian): 21.5 µM
- GI50 (MDA-MB-231 breast): 1.76 µM
- TGI (MDA-MB-231 breast): 3.59 µM
- GI50 (NCI/ADR-RES ovarian): 4.93 µM
- TGI (NCI/ADR-RES ovarian): 30.3 µM
- GI50 (HT29 colon): 3.42 µM
- TGI (HT29 colon): 13.3 µM
- GI50 (HOP-62 NSCLC): 1.81 µM
- TGI (HOP-62 NSCLC): 3.96 µM
- GI50 (ACHN renal): 2.4 µM
- TGI (ACHN renal): 6.78 µM
